The target in one test is PD-1/PD-L1 interaction (Homo sapiens (Human), UniProt Q9NZQ7). Description: PD-1/PD-L1 Binding Assay kit (Cisbio), HTRF. Particulars: 8-10 concentrations, read-out: IC50 of inhibition of PD-1/PD-L1 interaction.
A further test relates to PBMCs cells. Description: Cytotoxicity, Cell Titer-Glo, PBMCs cells. The class given is cell-based. Particulars: Homo sapiens, PBMC; 24 hours incubation; read-out: PBMCs cells IC50 (cell death). The method, then: (§1) The raji (ATCC), raw (ATCC) and PBMCs cells were suspended in buffer (RPMI 1640 complete medium containing 10% FBS, SIGMA), respectively, and the cell density was counted. The cells were transferred to wells of a 96-well plate, ensuring that the cell density of each well was 1×10^4 cells/well, and incubated for 24 hours at 37° C., 5% CO2 with compounds at different concentrations (100 μM, 50 μM, 25 μM, 12.5 μM, 6.25 μM and 3.125 μM) and buffer control solution (0.2% DMSO). To each well, 100 μL of Cell Titer-Glo Luminescent Solution (Promega) was added and shaken for 10 minutes at room temperature, and then GloMax® Navigator System was used to measure the system […], and the cell death rate was calculated. Cell death rate (%)=(1−RLUcompound/RLUcontrol)×100%, and IC50 was determined from the inhibition curve.
For orientation: Cellular ATP, detected with luciferase, serves as a proxy for viable cell number.

The test system of another test is Raji cells. Description: Cytotoxicity, Cell Titer-Glo, Raji cells. The format is cell-based. As to conditions: Homo sapiens, 24 hours incubation, read-out: Raji cells IC50 (cell death). The protocol: as §1
The subject of a further test is Raw cells. Briefly: Cytotoxicity, Cell Titer-Glo, Raw cells. As to conditions: 24 hours incubation; read-out: Raw cells IC50 (cell death). The class given is cell-based. The protocol: as §1
The next test has as its target human PD-L1 (Homo sapiens (Human), UniProt Q9NZQ7). Description: Biofilm interferometry (BLI, OctetRED) binding to human PD-L1/AVI. Particulars: 1:1 binding model; for koff: read-out: Kdis. The protocol:
In the experiment, the instrument OctectRED of Fortebio Company based on biofilm interferometry (BLI) technology was used to capture human PD-L1/AVI with SA chips. The concentration of antigen PD-L1/AVI was diluted to 10 μg/mL with running buffer (PBS+0.02% Tween-20+2% DMSO), and the loading time was 300 s; similarly, the analyte was also diluted to the corresponding concentrations (20 nM, 10 nM, 5 nM, 2.5 nM, 1.25 nM, 0.625 nM, 0.3125 nM) with running buffer in gradient manner, and a buffer blank control group was set at the same time. The binding time of human PD-L1/AVI to the analyte was 180 s, and the dissociation time was 300 s; the chip was regenerated with 10 mM glycine HCl, pH 1.7 solution and repeated 5-second pulse for 3 times. The data were fitted to a 1:1 binding model to determine the equilibrium dissociation constant KD.

Test [1] deals with Human peripheral blood mononuclear cells (PBMCs). Description: Promotion of IFN-γ secretion in PBMCs treated with anti-CD3/anti-CD28 and PDL1/FC fusion protein (ELISA). The format is cell-based. As to conditions: hPD-L1 10.0 μg/mL, 72 h. The method, then: Human peripheral blood mononuclear cells (PBMCs) were isolated from 10-15 ml of whole blood of healthy volunteers using experimental human lymphocyte separation medium (TBD sciences). The cells were washed twice with normal saline and resuspended in buffer (RPMI 1640 complete medium containing 10% FBS, SIGMA) to count the cell density. The PBMCs were dispersed and placed in a 96-well plate, 1×10^5 cells and 50 μL of buffer per well. Anti-CD3 antibody (SIGMA) and anti-CD28 antibody (SIGMA) were mixed at a ratio of 1:1 to obtain an antibody mixture. The antibody mixture was added to the wells to ensure that the final concentration of antibody was 0.8 μg/mL. At the same time, PDL1/FC fusion protein (SINO BIOLOGICAL) was added to reach a final concentration of 10.0 μg/mL, and the compound to be tested was diluted with buffer and added to the wells to reach a final concentration of 0.1 μM or 1 μM. The mixed system was incubated at 37° C. and 5% CO2 for 72 h. The supernatant was collected, and the expression level of IFN-γ was measured by ELISA MAXTM Human IFN-γ Standard Kit (BioLegend), and the increase rate was calculated. Increase rate (%)=(expression amount of compound treatment−expression amount of PDL1 treatment)/expression amount of PDL1 treatment×100%
(In general: ELISA stands for enzyme-linked immunosorbent assay.)

Chain of human PD-L1 (Q9NZQ7 19-290): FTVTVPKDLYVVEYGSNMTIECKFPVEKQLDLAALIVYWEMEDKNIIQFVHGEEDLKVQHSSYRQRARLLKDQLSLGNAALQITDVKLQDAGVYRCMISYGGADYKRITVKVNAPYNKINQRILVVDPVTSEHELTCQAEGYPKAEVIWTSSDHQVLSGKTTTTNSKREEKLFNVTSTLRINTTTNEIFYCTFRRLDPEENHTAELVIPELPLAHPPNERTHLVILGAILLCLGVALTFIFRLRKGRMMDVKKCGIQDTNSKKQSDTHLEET
Chain of PD-1/PD-L1 interaction (Q9NZQ7 19-238): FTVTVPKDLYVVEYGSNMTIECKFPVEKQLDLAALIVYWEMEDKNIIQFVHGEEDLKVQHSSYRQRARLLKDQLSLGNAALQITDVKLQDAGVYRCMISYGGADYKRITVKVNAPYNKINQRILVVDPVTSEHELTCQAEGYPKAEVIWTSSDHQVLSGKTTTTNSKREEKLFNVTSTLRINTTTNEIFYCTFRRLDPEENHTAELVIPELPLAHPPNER

For the compound `CC(=O)NCCNCc1ccc(NCc2cccc(-c3ccccc3)c2C)cc1OCc1cccc(C#N)c1` [Compound 1], the IC50 on PD-1/PD-L1 interaction came to 4.94 µM.
As for `Cc1cc(CNC[C@@H](O)CC(=O)O)c(OCc2cncc(C#N)c2)cc1NCc1cccc(-c2ccccc2)c1C` [Compound 22], the IC50 on PD-1/PD-L1 interaction was found to be 0.017 µM.
`Cc1cc(CN2C[C@H](O)C[C@H]2C(=O)O)c(OCc2cncc(C#N)c2)cc1NCc1cccc(-c2ccccc2)c1C` [Compound 21]: the IC50 with PBMCs cells is 75.5 µM; in the test with Raji cells, greater than 100 µM; in the test with Raw cells it was 88.2 µM; at PD-1/PD-L1 interaction, 0.024 µM.
On to `COc1nc(NCc2cccc(-c3ccccc3)c2C)ccc1CN[C@H](CO)C(=O)O` [Compound 12], for which, at PD-1/PD-L1 interaction, the IC50 was 4.54 µM.
On to `N#Cc1cccc(COc2cc(NCc3cccc(-c4ccccc4)c3Br)ccc2CNC(CO)C(=O)O)c1` (centres unmarked) [Compound 33], for which, on PD-1/PD-L1 interaction, the IC50 was 0.637 µM.
The term Kd denotes the constant that tells how readily two partners part at equilibrium. Read a low Kd as higher affinity. By kon is commonly meant the rate constant with which the complex forms. Higher therefore signals fast association. Regarding `COc1cc(NCc2cccc(-c3ccccc3)c2C)c(Cl)cc1CN[C@H](CO)C(=O)O` [Compound 11], on human PD-L1, the affinity, expressed as Kd, was 0.000515 µM; the on-rate (kon) was 1.29e+06 M⁻¹ s⁻¹; the koff amounted to 0.000664 s⁻¹. Also, the IC50 at PD-1/PD-L1 interaction stood at 0.107 µM.
Turning to `Cc1c(CN(C)c2ccc(CNCCO)c(OCc3cccc(C#N)c3)c2)cccc1-c1ccccc1` [Compound 27], the IC50 in the test on PBMCs cells is greater than 100 µM; with Raji cells it was 84.1 µM; in the test on Raw cells, greater than 100 µM; at PD-1/PD-L1 interaction, 22.6 µM.
`Cc1cc(CN[C@H](CO)C(=O)O)c(OCc2cccc(C#N)c2)cc1NCc1cccc(-c2ccccc2)c1C` [Compound 19]: the IC50 at PD-1/PD-L1 interaction was found to be 0.165 µM.
Turning to `Cc1c(COc2ccc(CN[C@H](CO)C(=O)O)c(OCc3cncc(C#N)c3)c2)cccc1-c1ccccc1` [Compound 37, reference compound], the IC50 on PD-1/PD-L1 interaction was 0.323 µM.
In the case of `N#Cc1cncc(COc2cc(NCc3cccc(-c4ccccc4)c3C(F)(F)F)ccc2CN[C@H](CO)C(=O)O)c1` [Compound 30], the IC50 at PD-1/PD-L1 interaction was found to be 2.93 µM.
Consider `Cc1c(CNc2ccc(CN[C@H](CO)C(=O)O)c(OCc3cccc(C#N)c3)c2)cccc1-c1ccc2c(c1)OCCO2` [Compound 34], for which the IC50 in the test on PBMCs cells is greater than 100 µM; in the test on Raji cells it was 90.3 µM; in the test on Raw cells, greater than 100 µM; at PD-1/PD-L1 interaction it was 0.435 µM.
`COc1nc(OCc2cccc(-c3ccccc3)c2C)ccc1CNCCNC(C)=O` [BMS202]: in test [1] (compound 0.1 μM), the IFN-γ was 35100 pg/mL and the “Increase rate of IFN-γ expression vs PDL1 treatment” value (from here on “Increase rate of IFN-γ expression”) was 64.8%. Besides, in test [1] (compound 1.0 μM), the IFN-γ amounted to 39100 pg/mL and the “Increase rate of IFN-γ expression” value stood at 83.6%.
`Cc1c(C#N)cncc1COc1cc(OCc2cccc(-c3ccccc3)c2C)ccc1CN[C@H](CO)C(=O)O` [Compound 38, reference compound]: the IC50 at PD-1/PD-L1 interaction turned out to be 1.04 µM.
On to `N#Cc1cncc(COc2cc(NCc3cccc(-c4ccccc4)c3Br)ccc2CNC(CO)C(=O)O)c1` (centres unmarked) [Compound 31], for which the IC50 with PBMCs cells, with Raji cells and in the test on Raw cells was greater than 100 µM each time.
Consider `Cc1c(C#N)cncc1COc1cc(OCc2cccc(-c3ccccc3)c2C)ccc1CNC(CO)C(=O)O` (centres unmarked) [Compound 38, reference compound], for which the IC50 with PBMCs cells stood at 26.6 µM; in the test on Raji cells it was 32.1 µM; in the test with Raw cells it was 28.8 µM. Also, the IFN-γ worked out at 23300 pg/mL in test [1] (compound 0.1 μM) and 22600 pg/mL in test [1] (compound 1.0 μM). In addition, the “Increase rate of IFN-γ expression” value is given as 9.4% in test [1] (compound 0.1 μM) and 6.1% in test [1] (compound 1.0 μM).
Take `Cc1cc(CN[C@@H](CO)CC(=O)O)c(OCc2cncc(C#N)c2)cc1NCc1cccc(-c2ccccc2)c1C` [Compound 18]: the IC50 at PD-1/PD-L1 interaction is 0.023 µM.
In the case of `Cc1c(CNc2ccc(CNC(CO)CO)c(OCc3cccc(C#N)c3)c2)cccc1-c1ccccc1` [Compound 3], the IC50 on PD-1/PD-L1 interaction stood at 2.6 µM.
With `Cc1c(NCc2ccc(CN[C@H](CO)C(=O)O)c(OCc3cncc(C#N)c3)c2)cccc1-c1ccccc1` [Compound 28], the IC50 on PD-1/PD-L1 interaction is 0.191 µM.
Take `Cc1c(CN(C)c2ccc(CN[C@H](CO)C(=O)O)c(OCc3cccc(C#N)c3)c2)cccc1-c1ccccc1` [Compound 26]: on PD-1/PD-L1 interaction, the IC50 was greater than 100 µM.
Turning to `Cc1cc(CN2C[C@@H](O)CC2=O)c(OCc2cncc(C#N)c2)cc1NCc1cccc(-c2ccccc2)c1C` [Compound 23], at PD-1/PD-L1 interaction, the IC50 amounted to 0.036 µM.
On to `Cc1cc(CN[C@H](CC(N)=O)C(=O)O)c(OCc2cncc(C#N)c2)cc1NCc1cccc(-c2ccccc2)c1C` [Compound 25], for which the IC50 at PD-1/PD-L1 interaction was 0.047 µM.
On to `Cc1cc(CN[C@H](CO)C(=O)O)c(OCc2cncc(C#N)c2)cc1NCc1cccc(-c2ccccc2)c1C(F)(F)F` [Compound 29], for which, on PD-1/PD-L1 interaction, the IC50 was 0.61 µM.
On to `Cc1c(CNc2ccc(CN[C@H](CO)C(=O)O)c(OCc3cccc(C#N)c3)c2)cccc1-c1ccccc1` [Compound 4], for which the IC50 in the test with PBMCs cells is greater than 100 µM; in the test with Raji cells it was greater than 100 µM; in the test on Raw cells it was greater than 100 µM; on PD-1/PD-L1 interaction, 1.16 µM. Moreover, on human PD-L1, the dissociation constant Kd is 0.00181 µM. The kon at human PD-L1 amounted to 651000 M⁻¹ s⁻¹. Moreover, the koff on human PD-L1 is 0.00118 s⁻¹.
`Cc1cc(CN[C@H](CO)C(=O)O)c(OCc2cccnc2)cc1NCc1cccc(-c2ccccc2)c1C` [Compound 17]: the IC50 is greater than 100 µM in the test with PBMCs cells, 78.9 µM with Raji cells, 61.6 µM in the test on Raw cells and 0.092 µM at PD-1/PD-L1 interaction.
With `Cc1cc(NCc2cccc(-c3ccccc3)c2C)cc(OCc2cncc(C#N)c2)c1CN[C@H](CO)C(=O)O` [Compound 7], on PD-1/PD-L1 interaction, the IC50 is 0.363 µM.
On to `COc1nc(NCc2cccc(-c3ccccc3)c2C)ccc1CNCCNC(C)=O` [Compound 9], for which the IC50 at PD-1/PD-L1 interaction stood at 4.24 µM.
`COc1cc(NCc2cccc(-c3ccccc3)c2C)ncc1CN[C@H](CO)C(=O)O` [Compound 15]: on PD-1/PD-L1 interaction, the IC50 was found to be 2.63 µM.
On to `COc1cc(NCc2cccc(-c3ccccc3)c2C)cc(OCc2cccc(C#N)c2)c1CN[C@H](CO)C(=O)O` [Compound 8], for which the IC50 is greater than 100 µM in the test with PBMCs cells, greater than 100 µM in the test with Raji cells, greater than 100 µM with Raw cells and 0.672 µM at PD-1/PD-L1 interaction.
`COc1cc(NCc2cccc(-c3ccccc3)c2C)c(C)cc1CNC(CO)C(=O)O` (centres unmarked) [Compound 14]: the IC50 in the test on PBMCs cells, in the test on Raji cells and in the test on Raw cells was greater than 100 µM throughout.
Consider `Cc1cc(NCc2cccc(-c3ccccc3)c2C)cc(OCc2cccc(C#N)c2)c1CN[C@H](CO)C(=O)O` [Compound 6], for which the IC50 at PD-1/PD-L1 interaction came out at 0.436 µM.
Take `Cc1c(CNc2ccc(CNCCO)c(OCc3cccc(C#N)c3)c2)cccc1-c1ccccc1` [Compound 2]: the IC50 at PD-1/PD-L1 interaction was 3.67 µM.
Regarding `Cc1c(COc2ccc(CNC(CO)C(=O)O)c(OCc3cncc(C#N)c3)c2)cccc1-c1ccccc1` (centres unmarked) [Compound 37, reference compound], the results for the IC50 in the test on PBMCs cells, in the test with Raji cells and in the test with Raw cells were 16.8 µM, 22.6 µM and 31.2 µM, respectively. In addition, the IFN-γ in test [1] (compound 0.1 μM) turned out to be 23200 pg/mL; in test [1] (compound 1.0 μM) it was 25100 pg/mL. The “Increase rate of IFN-γ expression” value worked out at 8.9% in test [1] (compound 0.1 μM) and 17.8% in test [1] (compound 1.0 μM). On human PD-L1, this compound gave a Kd of 0.0675 µM. In addition, the kon on human PD-L1 stood at 12600 M⁻¹ s⁻¹. Also, on human PD-L1, the koff was 0.000851 s⁻¹.
Consider `Cc1cc(CN[C@H](CCO)C(=O)O)c(OCc2cncc(C#N)c2)cc1NCc1cccc(-c2ccccc2)c1C` [Compound 24], for which the IC50 on PD-1/PD-L1 interaction amounted to 1.33 µM.
On to `CCOc1cc(NCc2cccc(-c3ccccc3)c2C)c(C)cc1CN[C@H](CO)C(=O)O` [Compound 20], for which the IC50 on PD-1/PD-L1 interaction came out at 0.347 µM.

Values taken from US20230303494A1, “BENZYLAMINE DERIVATIVE, PREPARATION METHOD THEREFOR AND USE THEREOF” (ACADEMY OF MILITARY MEDICAL SCIENCES, priority 2020, published 2023).
